# Measured values reported in ChEMBL document CHEMBL6182936, “Discovery of KDX1381, a Bivalent CK2α Inhibitor for the Treatment of Solid Tumors as a Single Agent or in Combination” (J Med Chem, 2025).
# The source made the active and inactive calls. No cut-off for these calls is given here.
# Experiments:
# in vitro = details: mouse, hepatocytes
# 786-0 [1] = experiment: cells; details: Homo sapiens, 786-0, 72 h
# physchem [2] = details: PBS buffer, pH 7.4
# 786-0 [3] = experiment: cells; details: Homo sapiens, 786-0, 72 h, read-out: Activity
# HCT-116 = experiment: cells; details: Homo sapiens, HCT-116, 72 h, read-out: Activity
# animal or person [4] = details: Homo sapiens, SF767, po, 1152 h, read-out: TGI
# in vivo [5] = details: CD-1, mouse, ip, 40 mg/kg
# in vivo [6] = details: CD-1, mouse, iv, 1 mg/kg
# in vivo [7] = details: CD-1, mouse, iv, 1 mg/kg; remark: listed apart in the source
# 786-0 [8] = experiment: cells; details: Homo sapiens, 786-0, 72 h, read-out: Activity; remark: listed apart in the source
# physchem [9] = details: FaSSIF, pH 6.5
# Hep 3B2 [10] = experiment: animal or person; details: Mus musculus, Hep3B, po, read-out: TGI
# in vivo [11] = details: CD-1, mouse, ip, 40 mg/kg; remark: listed apart in the source
# in vivo [12] = details: CD-1, mouse, ip, 40 mg/kg; remark: listed apart in the source
# A-375 = details: Homo sapiens, dose 5-40 mg/kg, route ip
# 786-0 [13] = details: Homo sapiens, dose 20.0 mg/kg, route po, time 28.0 day
# in vivo [14] = details: CD-1, mouse, ip, 40 mg/kg; remark: listed apart in the source
# animal or person [15] = details: Homo sapiens, SF767, po, 1152 h, read-out: TGI; remark: listed apart in the source
# 786-0 [16] = experiment: cells; details: Homo sapiens, 786-0, 72 h, read-out: Activity; remark: listed apart in the source
# animal or person [17] = details: Homo sapiens, SF767, po, 1152 h, read-out: TGI; remark: listed apart in the source
# physchem [18] = details: PBS buffer, pH 7.4; remark: listed apart in the source
# in vivo [19] = details: CD-1, mouse, iv, 1 mg/kg; remark: listed apart in the source
# physchem [20] = details: NCl, pH 1.2
# Hep 3B2 [21] = experiment: animal or person; details: Mus musculus, Hep3B, po, read-out: TGI; remark: listed apart in the source
# 786-0 [22] = experiment: animal or person; details: Mus musculus, 786-0, 384 h, read-out: TGI
# physchem [23] = experiment: physchem
# SK-BR-3 [24] = experiment: cells; details: Homo sapiens
# SK-BR-3 [25] = experiment: cells; details: Homo sapiens; remark: listed apart in the source
# 786-0 [26] = experiment: cells; details: Homo sapiens
# 786-0 [27] = experiment: cells; details: Homo sapiens; remark: listed apart in the source
# 786-0 [28] = experiment: cells; details: Homo sapiens, 786-0, 72 h, read-out: Activity; remark: listed apart in the source
# Hep 3B2 [29] = experiment: animal or person; details: Mus musculus, Hep3B, po, read-out: TGI; remark: listed apart in the source
compound,measurement,setting,value
CC(=O)c1[nH]c2ccc(F)cc2c1-c1cn(CC2CCN(CCNS(=O)(=O)c3ccc(CC(C)C)cc3)CC2)nn1,remaining at 0.5 h,in vitro,53%
same,IC50,786-0 [1],3.2 µM
same,solubility at 24 h,physchem [2],10.4 µg/mL
O=C(O)c1ccc2c(c1)nc(Nc1cccc(Cl)c1)c1ccncc12 [SILMITASERTIB],viability at 10 µM,786-0 [3],93.5%
same,viability at 10 µM,HCT-116,69.2%
COc1cccc(OC)c1-c1ccc(S(=O)(=O)NCCN2CCC(Cn3cc(-c4c(C(C)=O)[nH]c5ccc(F)cc45)nn3)CC2)cc1C,remaining at 0.5 h,in vitro,44%
same,IC50,786-0 [1],1.7 µM
same,solubility at 24 h,physchem [2],1.9 µg/mL
CSc1ccccc1-c1ccc(S(=O)(=O)NCCN2CCC(Cn3cc(-c4c(C(C)=O)[nH]c5ccc(F)cc45)nn3)CC2)cc1C,remaining at 0.5 h,in vitro,26%
same,IC50,786-0 [1],> 10 µM
same,solubility at 24 h,physchem [2],< 0.5 µg/mL
Cn1nnc2c(C(N)=O)ncn2c1=O [TEMOZOLOMIDE],inhibition in vivo at 20 mg/kg,animal or person [4],67%
CC(=O)c1[nH]c2ccc(F)cc2c1-c1cn(CC2CCN(CCNS(=O)(=O)c3ccc(-c4c(O)cccc4F)c(C#N)c3)CC2)nn1,solubility at 24 h,physchem [2],25.5 µg/mL
CC(=O)c1[nH]c2ccc(F)cc2c1-c1cn(CC2CCN(CCNS(=O)(=O)c3ccc(-c4c(O)cccc4F)c(Cl)c3)CC2)nn1,IC50,786-0 [1],> 10 µM
same,solubility at 24 h,physchem [2],< 0.5 µg/mL
CC(C)Cc1ccc(S(=O)(=O)NCCN2CCC(Cn3cc(-c4c[nH]c5ccccc45)nn3)CC2)cc1,remaining at 0.5 h,in vitro,18%
same,IC50,786-0 [1],5.9 µM
same,solubility at 24 h,physchem [2],2.7 µg/mL
COc1ccccc1-c1ccc(S(=O)(=O)NCCN2CCC(Cn3cc(-c4c(C(C)=O)[nH]c5ccc(F)cc45)nn3)CC2)cc1C,IC50,786-0 [1],2.9 µM
CC(=O)c1[nH]c2ccc(F)cc2c1-c1cn(CC2CCN(CCNS(=O)(=O)c3ccc(-c4c(O)cccc4Cl)cc3)CC2)nn1,IC50,786-0 [1],3.3 µM
same,solubility at 24 h,physchem [2],< 0.5 µg/mL
CC(=O)c1[nH]c2ccc(F)cc2c1-c1cn(CC2CCN(CCNS(=O)(=O)c3ccc(-c4ccccc4O)cc3)CC2)nn1,remaining at 0.5 h,in vitro,46%
same,IC50,786-0 [1],0.9 µM
same,solubility at 24 h,physchem [2],18.5 µg/mL
CC(=O)c1[nH]c2ccc(F)cc2c1-c1cn(CC2CCN(CCNS(=O)(=O)c3ccc(-c4c(F)cccc4C(F)(F)F)cc3)CC2)nn1,IC50,786-0 [1],> 10 µM
same,solubility at 24 h,physchem [2],< 0.5 µg/mL
COc1cccc(F)c1-c1ccc(S(=O)(=O)NCCN2CCC(Cn3cc(-c4c(C(C)=O)[nH]c5ccc(F)cc45)nn3)CC2)cc1,remaining at 0.5 h,in vitro,48%
same,IC50,786-0 [1],> 10 µM
same,solubility at 24 h,physchem [2],5.4 µg/mL
CC(=O)c1[nH]c2ccc(F)cc2c1-c1cn(CC2CCN(CCNS(=O)(=O)c3ccc(-c4c(O)cccc4F)c(C)c3)CC2)nn1,remaining at 0.5 h,in vitro,27%
same,IC50,786-0 [1],6.6 µM
same,solubility at 24 h,physchem [2],3.4 µg/mL
CC(=O)c1[nH]c2ccc(F)cc2c1-c1cn(CC2CCN(CCNS(=O)(=O)c3ccc(-c4c(O)cccc4F)cc3)CC2)nn1,Tmax at 24 h,in vivo [5],1.33 h
same,clearance at 24 h,in vivo [6],60.5 mL/min/kg
same,Vd at 24 h,in vivo [7],5.9 L/kg
same,viability at 1 µM,786-0 [8],25%
same,solubility,physchem [9],> 100 µg/mL
same,inhibition in vivo at 30 mg/kg,Hep 3B2 [10],95%
same,bioavailability at 24 h,in vivo [11],> 100%
same,Cmax at 24 h,in vivo [12],2700 ng/mL
same,TGI,A-375,Active
same,TGI,786-0 [13],Active
same,remaining at 0.5 h,in vitro,42%
same,AUC(0-inf) at 24 h,in vivo [14],8640 ng·h/mL
same,IC50,786-0 [1],0.8 µM
same,inhibition in vivo at 40 mg/kg,animal or person [15],103%
same,viability at 1 µM,786-0 [16],90.4%
same,inhibition in vivo at 40 mg/kg,animal or person [17],77%
same,solubility,physchem [18],1.7 µg/mL
same,half-life at 24 h,in vivo [19],1.13 h
same,solubility,physchem [20],28.2 µg/mL
same,inhibition in vivo at 30 mg/kg,Hep 3B2 [21],74%
same,inhibition in vivo at 40 mg/kg,786-0 [22],90%
same,solubility at 24 h,physchem [2],10.7 µg/mL
same,viability at 10 µM,786-0 [3],12.7%
same,viability at 10 µM,HCT-116,85.1%
CC(=O)c1[nH]c2ccc(F)cc2c1-c1cn(CC2CCN(CCNS(=O)(=O)c3ccc(-c4cccc5ccsc45)cc3)CC2)nn1,IC50,786-0 [1],> 10 µM
CC(=O)c1[nH]c2ccc(F)cc2c1-c1cn(CC2CCN(CCNS(=O)(=O)c3ccc(-c4c(O)cccc4F)c(C(F)(F)F)c3)CC2)nn1,remaining at 0.5 h,in vitro,< 10%
same,IC50,786-0 [1],3.6 µM
same,solubility at 24 h,physchem [2],1.1 µg/mL
COc1cc(S(=O)(=O)NCCN2CCC(Cn3cc(-c4c(C(C)=O)[nH]c5ccc(F)cc45)nn3)CC2)ccc1-c1c(O)cccc1F,remaining at 0.5 h,in vitro,39%
same,IC50,786-0 [1],> 10 µM
same,solubility at 24 h,physchem [2],3.2 µg/mL
CC(C)Cc1ccc(S(=O)(=O)NCCN2CCC(Cn3cc(-c4c(C(=O)C(C)C)[nH]c5ccc(F)cc45)nn3)CC2)cc1,remaining at 0.5 h,in vitro,15%
same,IC50,786-0 [1],> 10 µM
same,solubility at 24 h,physchem [2],0.9 µg/mL
CC(C)Cc1ccc(S(=O)(=O)NCCN2CCC(Cn3cc(-c4c(C(=O)C5CC5)[nH]c5ccc(F)cc45)nn3)CC2)cc1,IC50,786-0 [1],> 10 µM
same,solubility at 24 h,physchem [2],< 0.5 µg/mL
CCOC(=O)c1[nH]c2ccc(F)cc2c1-c1cn(CC2CCN(CCNS(=O)(=O)c3ccc(CC(C)C)cc3)CC2)nn1,remaining at 0.5 h,in vitro,< 10%
same,IC50,786-0 [1],> 10 µM
same,solubility at 24 h,physchem [2],< 0.5 µg/mL
CC(C)COC(=O)c1[nH]c2ccc(F)cc2c1-c1cn(CC2CCN(CCNS(=O)(=O)c3ccc(CC(C)C)cc3)CC2)nn1,solubility,physchem [23],< 0.5 µg/mL
same,IC50,SK-BR-3 [24],8.9 µM
same,IC50,SK-BR-3 [25],8.9 µM
same,remaining at 0.5 h,in vitro,< 10%
same,IC50,786-0 [1],> 10 µM
same,IC50,786-0 [26],14.8 µM
same,IC50,786-0 [27],14.8 µM
same,solubility at 24 h,physchem [2],< 0.5 µg/mL
CNC(=O)c1cc(Oc2ccc(NC(=O)Nc3ccc(Cl)c(C(F)(F)F)c3)cc2)ccn1 [SORAFENIB],viability at 4.5 µM,786-0 [28],88%
same,inhibition in vivo at 40 mg/kg,Hep 3B2 [29],29%
COc1cccc(OC)c1-c1ccc(S(=O)(=O)NCCN2CCC(Cn3cc(-c4c(C(C)=O)[nH]c5ccc(F)cc45)nn3)CC2)cc1,remaining at 0.5 h,in vitro,67%
same,IC50,786-0 [1],> 10 µM
same,solubility at 24 h,physchem [2],8 µg/mL
CC(C)Cc1ccc(S(=O)(=O)NCCN2CCC(Cn3cc(-c4c[nH]c5ccc(F)cc45)nn3)CC2)cc1,remaining at 0.5 h,in vitro,25%
same,IC50,786-0 [1],6.8 µM
same,solubility at 24 h,physchem [2],1.5 µg/mL
